# Results published in patent US20050222266A1, “2-indanylamino derivatives for the therapy of chronic pain” (priority 2002, published 2005).
# Structures can show the parent of a compound that is named as a salt.
# Assays:
# [1] = system: thermal hyperalgesia produced by CCI; test: Chronic Constriction Injury (CCI) model, thermal hyperalgesia (plantar test); format: in vivo; settings: rat CCI
# Protocol: (§1) The potential analgesic activity of CHF 3381 was evaluated the Chronic Constriction Injury (CCI) model described by Bennett et al (Pain 1988, 33: 87-107). Briefly, the rat left common sciatic nerve was exposed, and proximal to the sciatic trifurcation about 10 mm of nerve was freed of adhering tissue and four ligatures (4.0 silk ) were loosely tied around it with about 1 mm of spacing.
# (§2) Two tests of hind limb withdrawal to thermal and cold stimuli were employed in this study. Each test was repeated on both the operated hind paw and the controlateral hind paw.
# Rats were tested for thermal hyperalgesia using a commercial available analgesimeter (Plantar test, Ugo Basile, Comerio Italy) by applying heat stimulus (50 W, 8V) directed onto the plantar surface of each hind paw, and the paw withdrawal latency (s) was determined. Four latency measurements were taken for each hind paw and averaged. The apparatus was calibrated to give a paw withdrawal latency of approximately 10 sec. The results were expressed as the difference score (DS) by subtracting the latency of the control side from the latency of the ligated side; if this difference was less than 1.5 sec, the animal was not included in the experimental groups. CHF 3381 (10-30-60 mg/kg intraperitoneally -i.p.-) or vehicle were administered to animals 14-21 days after ligation and hyperalgesia tested 1, 2 and 4 hours after treatment. CHF3381 reversed the thermal hyperalgesia produced by CCI in a dose- and time-dependent manner with a maximum effect at 60 min after the administration.
# [2] = system: cold allodynia produced by CCI; test: Chronic Constriction Injury (CCI) model, cold allodynia; format: in vivo, rat
# Protocol: as §1, §2
# Cold allodynia was assessed in operated rats, confining them into a clear plastic cylinders placed upon a metal floor chilled by an underlying water bath. A thermistor placed on the floor indicated a surface temperature of about 5° C. In this experimental condition, after the ligation operated rats respond by lifting the affected hind paw elevated above the floor. […] A maximum cut-off time of 20 sec was set to avoid any possible interference with the sensitivity of the animal to respond to subsequent exposure to the cold stimulus. Animals were pre-screened twice with 20 min interval between tests, in order to select for animals displaying clear signs of cold allodynia, i.e. animals with a paw withdrawal latency on the ligated side of <13 sec in both trials.
# The animals were then assigned to groups consisting of at least 10 animals per group. CHF 3381 (10-30-60 mg/kg i.p.) or vehicle were administered to animals 7-14 days after ligation and cold allodynia tested 1 and 2 hours after treatment. CHF 3381 also reversed cold allodynia produced by CCI. This effect was again observed to be both time- and dose-dependent with the results generally concurring with those from the thermal hyperalgesia studies. The effect was maximum at 60-120 min after the administration and significant at the two higher tested doses (Table 1).
smiles,measurement,setting,value
"NC(=O)CNC1Cc2ccccc2C1 [CHF 3381, N-2(indanyl)-glicinamide hydrochloride]",Hyperalgesia Difference score (DS),[1]; 10 mg/kg i.p.,1.41 ± 0.36 s
same,Hyperalgesia Difference score (DS),[1]; 30 mg/kg i.p.,0.83 ± 0.35 s
same,Hyperalgesia Difference score (DS),[1]; 60 mg/kg i.p.,0.68 ± 0.14 s
same,Allodynia paw withdrawal latency,"[2]; 10 mg/kg i.p., 60 min",7.75 ± 1.36 s
same,Allodynia paw withdrawal latency,"[2]; 10 mg/kg i.p., 120 min",8.71 ± 1.88 s
same,Allodynia paw withdrawal latency,"[2]; 30 mg/kg i.p., 60 min",9.96 ± 1.70 s
same,Allodynia paw withdrawal latency,"[2]; 30 mg/kg i.p., 120 min",9.89 ± 1.70 s
same,Allodynia paw withdrawal latency,"[2]; 60 mg/kg i.p., 60 min",11.2 ± 1.33 s
same,Allodynia paw withdrawal latency,"[2]; 60 mg/kg i.p., 120 min",12.68 ± 1.63 s
